Assays:
CYP707A3 = assay: qRT-PCR transcript level in mannitol stressed plants: CYP707A3; type: in vivo, Arabidopsis thaliana; details: 10 and 33 μM, 6 hours post-compound treatment, normalized to UBQ10
Description: (§1) For each condition to be tested, three hundred wild-type Arabidopsis thaliana Col-0 seeds (LEHLE) were sterilized, vernalized and sewn onto 200 mL of Sunshine Mix #3 (Sun Gro) potting material in an 8×8×4 cm pot. Plants were watered continuously with 25 g/100 mL of 20-20-20 (PlantProdTM) fertilizer and grown at 22° C. with a 16 hour photoperiod for 22 days. Plants were pre-treated with 50 mL/pot of Buffer A (10 mM HEPES pH 6.5) (Sigma)+/-10 or 33 μM test compound for 2 hours. Plants were then soaked with 50 mL/pot of Buffer A containing 0.4 M mannitol (Sigma)+/-10 or 33 μM test compound. Non-treated/non-stressed control plants were simply soaked in Buffer A at the designated time points. Aerial plant tissue was harvested after 6, 12 and 48 hours from the time of initial inhibitor treatment and flash frozen in liquid nitrogen. Half of the tissue samples were lyophilized for metabolite profiling and the other half taken for quantitative reverse-transcription polymerase chain reaction (qRT-PCR) analysis. […] The resulting mRNA was quantified and checked for quality using a Nano-DropTM ND-1000 Spectrophotometer. QuantiTectTM Reverse Transcription Kit (Qiagen) was used to produce cDNA as directed by the manufacturer from 20 ng of starting mRNA. […] Relative changes in transcript level were normalized using UBQ10 and quantified as previously described.^41

[1] = test system: ABA and catabolites in Arabidopsis thaliana Col-0 plants; assay: Total ABA metabolite levels in mannitol stressed plants treated with SLCCD inhibitors; type: in vivo; details: for effect on ABA and catabolite pools under osmotic stress, compared with 13 (in words): whole time course
Description: For each condition to be tested, three hundred wild-type Arabidopsis thaliana Col-0 seeds (LEHLE) were sterilized, vernalized and sewn onto 200 mL of Sunshine Mix #3 (Sun Gro) potting material in an 8×8×4 cm pot. Plants were watered continuously with 25 g/100 mL of 20-20-20 (PlantProd™) fertilizer and grown at 22° C. with a 16 hour photoperiod for 22 days. Plants were pre-treated with 50 mL/pot of Buffer A (10 mM HEPES pH 6.5) (Sigma)+/−10 or 33 μM test compound for 2 hours. Plants were then soaked with 50 mL/pot of Buffer A containing 0.4 M mannitol (Sigma)+/−10 or 33 μM test compound. Non-treated/non-stressed control plants were simply soaked in Buffer A at the designated time points. […] Half of the tissue samples were lyophilized for metabolite profiling and the other half taken for quantitative reverse-transcription polymerase chain reaction (qRT-PCR) analysis.
Freeze-dried tissue was homogenized using a multi-tube ball mill (Mini-BeadBeater-96™, Biospec Products Inc., Bartlesville, Okla., USA) and 50 mg of each sample was weighed out into individual Falcon tubes. To each sample, 100 μL of a cocktail of internal standards comprised of (−)-5,8′,8′,8′-d4-ABA, (−)-7′,7′,7′-d3-PA, (−)-5,8′,8′,8′-d4-7′OH ABA, (−)-7′,7′,7′-d3-DPA and (+)-4,5,8′,8′,8′-d5-ABAGE, each at a concentration of 0.2 ng/μL and dissolved in a mixture of water:acetonitrile (1:1, v/v) with 0.5% glacial acetic acid, was added. Further, 3 mL of isopropanol:water:glacial acetic acid (80:19:1, v/v/v) extraction solvent was added, and samples were placed in the fridge (4° C., in the dark) on an orbital shaker at about 350 rpm. After 18-24 hours, the samples were centrifuged at 4.4 krpm for 10 min, the supernatant was transferred to a disposable culture tube, and a second portion of 500 μL extraction solvent mixture was added to wash the pellet. After vortexing and centrifuging again at 4.4 krpm for 10 min, each wash was combined with its appropriate supernatant. The organic extract was dried under reduced pressure, then re-dissolved in 100 μL methanol:glacial acetic acid (99:1, v/v) followed by 900 μL of aqueous 1% glacial acetic acid. This mixture was extracted with 2 mL hexane, and then the aqueous layer was dried down under reduced pressure. The sample was further reconstituted in 2 mL aqueous 1% glacial acetic acid and loaded onto an Oasis MCX SPE cartridge (3 cc, Waters Corporation, Mississauga, Ontario, Canada). After a wash with 3 mL aqueous 1% glacial acetic acid, samples were eluted with 1 mL methanol:glacial acetic acid (99:1, v/v) and then dried down under reduced pressure. The extract was re-dissolved in 100 μL methanol:glacial acetic acid (99:1, v/v) followed by 900 μL of aqueous 1% glacial acetic acid. This mixture was further cleaned on an Oasis HLB SPE cartridge (1 cc, Waters Corporation, Mississauga, Ontario, Canada). After a wash with 1 mL aqueous 1% glacial acetic acid, the fraction containing ABA and ABA metabolites was eluted with 1 mL acetonitrile:water:glacial acetic acid (30:69:1, v/v/v) and then was evaporated to dryness. The final residue was dissolved in 200 μL of acetonitrile:water (15:85, v/v) containing 0.1% glacial acetic acid and 100 pg/μL (±)-3′,5′,5′,7′,7′,7′-d6-ABA as a recovery standard. Finally, the sample was subjected to LC-ES-MS/MS analysis and quantification, as described in Owen and Abrams, 2008.^39

Rd29B = assay: qRT-PCR transcript level in mannitol stressed plants: Rd29B; type: in vivo, Arabidopsis thaliana; details: 10 and 33 μM, 6 hours post-compound treatment, normalized to UBQ10
Description: as §1

CYP707A1 = assay: qRT-PCR transcript level in mannitol stressed plants: CYP707A1; type: in vivo, Arabidopsis thaliana; details: 10 and 33 μM, 6 hours post-compound treatment, normalized to UBQ10
Description: as §1

[2] = 33 μM inhibitor, mannitol stress

Structure (SMILES) | CYP707A3 mRNA transcript level vs mannitol-stressed control (in words) (CYP707A3) | total levels of ABA and catabolites ([1]; 33 μM inhibitor 2 h before and during 0.4 M mannitol stress, 24 hours, mannitol only 15147 pmol/g) [pmol/g] | levels of ABA and catabolites at first time point (in words) ([1]; 33 μM inhibitor, mannitol stress, first 6 hours) | inhibition of mannitol-induced Rd29b transcription (Rd29B) | CYP707A1 mRNA transcript level vs mannitol-stressed control (in words) (CYP707A1) | effect on ABA and catabolite pools under osmotic stress, compared with 13 (in words) [1, 2]
CCSCC=C(C)C#CC1(O)C(C)CC(=O)CC1(C)C (racemic) [Compound 13, (4S,5R/4R,5S)-(3′Z)-4-(5′-(Ethylthio)-3′-methylpent-3′-en-1′-ynyl)-4-hydroxy-3,3,5-trimethylcyclohexanone] | reductions in the accumulation of mRNA transcript levels | 8211 | comparable to those of the non-treated/non-stressed control plants | about 90% | reductions in the accumulation of mRNA transcript levels | 
C/C(C#C[C@@]12O[C@]1(C)C[C@@H](O)CC2(C)C)=C/CSc1ccccc1 [Compound 17, (1R,3S,6R)-(3′Z)-1,5,5-Trimethyl-6-(3′-methyl-5′-(phenylthio)-pent-3′-en-1′-ynyl)-7-oxa-bicyclo[4.1.0]heptan-3-ol] |  |  |  |  |  | less effective than 13
C/C(C#C[C@@]12O[C@]1(C)C[C@@H](O)CC2(C)C)=C/CNc1ccccc1 [Compound 18, (1R,3S,6R)-(3′Z)-1,5,5-Trimethyl-6-(3′-methyl-5′-(phenylamino)-pent-3′-en-1-ynyl)-7-oxabicyclo[4.1.0]heptan-3-ol] |  |  |  |  |  | less effective than 13

From patent publication US8283481B2, “Inhibitors of a 9-cis epoxycarotenoid dioxygenase” (National Research Council of Canada, priority 2008, dated 2012)
